Literature values, collected in patent US11608532B2, “Precision medicine for treating and preventing suicidality” (Indiana University Research and Technology Corporation, priority 2017, dated 2023).
Where two headings read alike, the source gives them in different places.

Assays:
[1] = system: individual top biomarkers for suicidality; details: for HTR2A modulated by drug in opposite direction to suicide: DE/2
BioM50 panel biomarkers = details: for Matching to Treatments (Pharmacogenomics) Drugs that Modulate the Biomarker in opposite Direction to Suicide: (D) decreased in high suicidal ideation
[2] = system: top male bipolar biomarkers for suicidality; details: HTR2A, 244130_at, (I) in suicidality, male bipolars

CCCC(CCC)C(=O)O [Valproate]
Valproate: SLC4A4 modulated by drug in opposite direction to suicide ([1]; A. Top Universal Biomarkers, direction of change in suicidality (I), AP/1) | HTR2A modulated by drug in opposite direction to suicide ([1]; A. Top Universal Biomarkers, direction of change in suicidality (I)) | SLC4A4 modulated by drug in opposite direction to suicide ([1]; B. Top Biomarkers in Males, direction of change in suicidality I, AP/2) | TPR modulated by drug in opposite direction to suicide ([1]; C. Top Biomarkers in Females, direction of change in suicidality D, AP/4) | HTR2A modulated by drug in opposite direction to suicide ([1]; C. Top Biomarkers in Females, direction of change in suicidality I) | HTR2A modulated by drug in opposite direction to suicide ([1]; D. Top Biomarkers in Bipolar Disorder, direction of change in suicidality (I)) | TSPYL1 modulated by drug in opposite direction to suicide ([1]; E. Top Biomarkers in Depression, direction of change in suicidality (D), AP/1) | GLIPR1 modulated by drug in opposite direction to suicide ([1]; E. Top Biomarkers in Depression, direction of change in suicidality (D), DE/1) | HTR2A modulated by drug in opposite direction to suicide ([1]; F. Top Biomarkers in Males with Bipolar Disorder, direction of change in suicidality (I)) | TSPYL1 modulated by drug in opposite direction to suicide ([1]; G. Top Biomarkers in Males with Depression, direction of change in suicidality D, AP/1) | Step 6 Drugs that Modulate the Biomarker in Opposite Direction to Suicide ([1]; biomarker CTTN (cortactin)) | Step 6 Drugs that Modulate the Biomarker in Opposite Direction to Suicide ([1]; biomarker HTR2A (5-hydroxytryptamine (serotonin) receptor 2A, G protein-coupled)) | Step 6 Drugs that Modulate the Biomarker in Opposite Direction to Suicide ([1]; biomarker PKP4 (plakophilin 4)) | Step 6 Drugs that Modulate the Biomarker in Opposite Direction to Suicide ([1]; biomarker PRKAR2B) | Drugs that modulate the biomarker RBM3 ([1]; biomarker RBM3 (RNA binding motif (RNP1, RRM) protein 3), Table 20 CFE drug-evidence) | Step 6 Drugs that Modulate the Biomarker in Opposite Direction to Suicide ([1]; biomarker SLC4A4) | known drugs or classes of drugs that have an opposite effect to suicidality on the biomarker's direction of change (pharmacogenomics) (BioM50 panel biomarkers; biomarker BCL2 (B-cell CLL/lymphoma 2)) | Matching to Treatments (Pharmacogenomics) Drugs that Modulate the Biomarker in opposite Direction to Suicide (BioM50 panel biomarkers; biomarker NR3C1, probeset 201866_s_at) | Matching to Treatments (Pharmacogenomics) Drugs that Modulate the Biomarker in opposite Direction to Suicide (BioM50 panel biomarkers; biomarker PRKAR2B, probeset 203680_at) | Drugs that Modulate the Biomarker in Opposite Direction to Suicide [2]
